How the values were obtained:
[1] = Mouse Activity and Screen Test Procedure (MAST): screen test failure (ST); settings: lowest dose at which an A rating is achieved, screen test; i.p., mouse
Experimental: Nine unfasted Swiss-Webster male mice weighing 20-30 g are equally divided into three groups for each drug dose to be tested. That is, data for each dose level was generated by three separate groups of three mice each.
A minimum of three dose levels (10, 30, and 100 mg/kg) are tested for each drug. Treatments are administered intraperitoneally one hour prior to testing. All dosages are calculated as parent compound and given in volumes of 10 ml/kg. Compounds are dissolved or suspended in 0.2% Methocel. Control animals are injected with Methocel.
Testing: A two part testing procedure is started one hour postinjection. First, the screen test (ST) is performed (see Pharmac. Biochem. Behav. 6, 351-353, 1977). Briefly this test consists of placing mice on individual wire screens which are then rotated 180 degrees at the start of a 60 second observation period. The number of mice falling off the inverted screen is recorded.
Data: The data obtained from the screen test are expressed as percent of mice falling off the screen. Data derived from locomotor activity of drug treated mice are compared to the activity of vehicle treated animals and are expressed as percent inhibition of spontaneous locomotion. All percentages reported for inhibition of locomotion (LI) are based upon data accumulated for one hour. Both phases of testing are graded: A=60-100%; C=31-59%; and N=0-30%. An overall dose rating is obtained by the following criteria:
LAD refers to the lowest dose at which an A rating is achieved. […] The compounds are identified in the Examples.

adenosine A2 receptor = target: T1, adenosine A2 receptor (Rattus norvegicus, UniProt P30543); test: Adenosine Receptor Binding--A2 Receptor Affinity (RBA2), [3H]NECA; design: species or system rat (Sprague-Dawley or Long-Evans, striatum)
T1 construct: 5 mg original tissue weight of rat weight of rat striatal membranes; tissue Pel-Freez (Rogers, Ark.); host or cells: rat striatum, membranes (Sprague-Dawley; Long-Evans from Blue Spruce Farms gave essentially identical results)
T1 sequence (P30543 whole entry): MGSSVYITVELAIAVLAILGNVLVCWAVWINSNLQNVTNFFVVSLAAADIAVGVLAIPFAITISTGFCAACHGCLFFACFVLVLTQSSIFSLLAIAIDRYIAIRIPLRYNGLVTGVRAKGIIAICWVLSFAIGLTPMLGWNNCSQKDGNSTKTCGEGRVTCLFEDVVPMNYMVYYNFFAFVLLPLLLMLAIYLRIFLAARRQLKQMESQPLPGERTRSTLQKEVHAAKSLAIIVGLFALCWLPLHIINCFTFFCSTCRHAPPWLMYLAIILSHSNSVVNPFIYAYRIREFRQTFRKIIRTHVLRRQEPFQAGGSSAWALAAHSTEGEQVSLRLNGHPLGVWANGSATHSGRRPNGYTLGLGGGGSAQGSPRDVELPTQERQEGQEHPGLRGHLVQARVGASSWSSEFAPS
Experimental: Adenosine Receptor Binding--A2 Receptor Affinity (RBA2)
Brains from 200-500 g mixed sex Sprague-Dawley rats were purchased from Pel-Freez (Rogers, Ark.). […] Brains were thawed and then kept on ice while the striata were dissected out. Striata were disrupted in 10 vol of ice-cold 50 mM Tris.HCl (pH 7.7 at 25° C., pH 8.26 at 5° C.) (Tris) for 30 seconds in a Polytron PT-10 (Brinkmann) at setting 5. The suspension was centrifuged at 50,000 xg for ten minutes, the supernatant discarded, the pellet resuspended in 10 vol ice-cold Tris as above, recentrifuged, resuspended at 1 g/5 ml, and stored in plastic vials at -70° C. […] When needed, tissue was thawed at room temperature, disrupted in a Polytron, and kept on ice until used. […]
Incubations were terminated by filtration through 2.4 cm GF/B filters under reduced pressure. […] Filters were put in scintillation vials, 8 ml of Formula 947 scintillation fluid added, and the vials left overnight, shaken, and counted in a liquid scintillation counter at 40% efficiency.
The IC50 was calculated by weighted nonlinear least squares curve-fitting to the mass-action equation. […]
Weighting factors were calculated under the assumption that the standard deviation was proportional to the predicted value of Y. Nonspecific binding was treated as a very large (infinite) concentration of drug in the computer analysis.

adenosine A1 receptor = target: T2, adenosine A1 receptor (Rattus norvegicus, UniProt P25099); test: Adenosine Receptor Binding--A1 Receptor Affinity (RBA1), [3H]-CHA; design: species or system rat (male Long Evans)
T2 construct: Whole brain minus cerebellum and brainstem from male Long Evans rats; from tissue; host or cells: rat whole brain minus cerebellum and brainstem, membranes (male Long Evans)
T2 sequence (P25099 1-326): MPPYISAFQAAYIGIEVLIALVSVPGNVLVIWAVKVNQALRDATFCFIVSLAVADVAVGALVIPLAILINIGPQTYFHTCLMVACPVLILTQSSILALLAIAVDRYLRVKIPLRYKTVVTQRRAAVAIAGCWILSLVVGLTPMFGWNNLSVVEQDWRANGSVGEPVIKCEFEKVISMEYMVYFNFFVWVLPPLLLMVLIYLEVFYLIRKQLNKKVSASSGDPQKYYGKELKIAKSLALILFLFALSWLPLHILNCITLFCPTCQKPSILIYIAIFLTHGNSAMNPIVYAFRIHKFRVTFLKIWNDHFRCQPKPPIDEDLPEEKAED
Experimental: Adenosine Receptor Binding--A1 Receptor Affinity (RBA1)
Whole brain minus cerebellum and brainstem from male Long Evans rats (150-200 g) was homogenized in 30 volumes of ice-cold 0.05M Tris-HCl buffer pH 7.7 using a Brinkman Polytron PT-10, (setting number 6 for 20 seconds) and centrifuged for ten minutes at 20,000 xg (Sorvall RC-2), 4° C. The supernatant was discarded, and the pellet was resuspended and centrifuged as before. The pellet was resuspended in 20 ml Tris-HCl buffer containing two International Units/ml of adenosine deaminase (Sigma type III from calf intestinal mucosa), incubated at 37° C. for 30 minutes, then subsequently at 0° C. for ten minutes. […]
Tissue homogenate (10 mg/ml) was incubated in 0.05M Tris-HCl buffer pH 7.7 containing 1.0 nM [^3 H]-N^6 -cyclohexyladenosine (^3 H]-CHA) with or without test agents in triplicate for one hour at 25° C. […] The radio-labeled ligand retained on the filter was measured by liquid scintillation spectrophotometry after shaking the filters for one hour or longer on a mechanical shaker in 10 ml of Beckman Ready-Solv HP scintillation cocktail.
Nonspecific binding was defined as the binding which occurred in the presence of 1 mM theophylline. […] The Scatchard plot was calculated by linear regression of the line obtained by plotting the amount of radioligand bound [formula] […]

[2] = Antihypertensive evaluation (AHP3), aortic blood pressure and heart rate in conscious rats; format: in vivo; settings: conscious rat
Source text: […] EVALUATION (AHP3)
This test procedure is described in the following paragraphs.
A Method for the Direct Monitoring of Aortic Blood Pressure and Heart Rate from Conscious Rats
The continuous monitoring of pulsatile blood pressure (BP) from unrestrained conscious rats surgically equipped with polyethylene cannulas was accomplished by means of a computer assisted data capture scheme (CADCS). The basic elements of the methodology are the cannulation procedure and the CADCS.
Cannulation Procedure: Rats were anesthetized with Telazol (1:1 tiletamine HCl and zolazepam HCl); 20-40 mg/kg IM and the descending aorta exposed via a midline incision. Cannulas fabricated from polyethylene tubing were inserted into the aorta via an undersized puncture hole below the renal arteries. The puncture hole was made by a 23G disposable needle with a section of the aorta clamped off above and below the puncture site. The cannulas, consisting of a PE100 (0.86 mm ID) body and a PE50 (0.5mm ID) tip, were attached to a trocar, inserted through the psoas muscle, and passed subcutaneously along the midline of the back and externalized between the ears. The cannulas were anchored to the psoas muscle and between the scalulae (3-0 green braided suture). The midline incision was closed in two steps (muscle first, skin second) using continuous over-and over sutures (4-0 chronic). Each rat was then given penicillin 30,000 units subcutaneously (Penicillin G Procaine Sterile Suspension).
The rats were fitted with a harness-spring-swivel assembly designed to protect the cannula and to provide the rat relative freedom of movement. The harnesses were fabricated from nylon hook and loop tape cemented to a metal plate to which spring wires (18-8 stainless steel), were attached to brass swivels. Each polyethylene cannula was channeled through a spring and connected through a swivel to a pressure transducer (Model P23Gb; Statham Instruments; Hato Rey, Puerto Rico) and an infusion pump (Sage model 234-7; Orion Research, Cambridge, MA) by means of PE100 tubing. While on test, each rat received a continuous slow infusion of heparinized saline solution (approximately […] or 40 units of heparin per 24 hour period) to prevent clot formation. Additional "flushes" of the cannula with heparinized saline were carried out when the aortic pulse pressure (systolic minus diastolic) was less than 25 mm Hg.
CADCS: The pulsatile blood pressure and heart rate of each of 32 rats was monitored every minute by means of two in-laboratory microcomputers communicating directly with a data concentrator computer. The data were first stored on the data concentrator disk and then transferred to a magnetic tape for analysis and report generation by the main research computer. The overall scheme involved modulating the primary signal from the pressure transducer, generating the primary data set of the one-minute values for systolic, diastolic, and mean blood pressures and heart rate by the in-lab microcomputer and the storage, analysis, and report generation by the main reserach computer.
The transducers were connected to analog signal conditioning modules. The modules provided a regulated excitation voltage for the transducers, amplification as required to interface the microprocessors and an active low pass filter to compensate for the pressure wave form distortion produced by the flexible, fluid filled, narrow cannula. The distortion was 22-26 Hz and this provided a reliable estimate of both systolic and diastolic blood pressure.
The microcomputers (one for each of two groups of 16 rats) were connected to the input components through the module interface units, an analog-to-digital converter for the pressure wave form signal and the digital inputs for the dose and event marker switches. The microcomputer controlled the sequential acquisition of data from the modular interface units through an internal synchronous time-of-day clock/time base generator. […]

[3] = Mouse Activity and Screen Test Procedure (MAST): inhibition of locomotion (LI); format: in vivo, mouse (Swiss-Webster)
Experimental: Treatments are administered intraperitoneally one hour prior to testing. […] Compounds are dissolved or suspended in 0.2% Methocel. Control animals are injected with Methocel.
Immediately following the screen test, the final phase of testing is initiated by placing each group of three mice in one actophotometer (Life Sciences, 22, 1067-1076, 1978). The actophotometer consists of a cylindrical chamber whose center is occupied by another cylinder which contains the illumination for six photocells located on the perimeter of the chamber. Six light-beam interruptions equal one count. Locomotor activity is recorded by computer at ten minute intervals for 60 minutes.
The compounds are identified in the Examples.

Structure (SMILES)	MAST ST LAD [1] [mg/kg]	IC50 (adenosine A2 receptor) [nM]	IC50 (adenosine A1 receptor) [nM]	HR.uparw. (change in heart rate) ([2]; 1 mg/kg) [%]	Mμ.c..dwnarw. (change in MAP) ([2]; 1 mg/kg) [%]	HR.uparw. (change in heart rate) ([2]; 3 mg/kg) [%]	Mμ.c..dwnarw. (change in MAP) ([2]; 3 mg/kg) [%]	HR.uparw. (change in heart rate) ([2]; 10 mg/kg) [%]	Mμ.c..dwnarw. (change in MAP) ([2]; 10 mg/kg) [%]	HR.uparw. (change in heart rate) ([2]; 30 mg/kg) [%]	Mμ.c..dwnarw. (change in MAP) ([2]; 30 mg/kg) [%]	Inhibition of mouse locomotor activity ([3]; 10 mg/kg i.p.) [%]	Inhibition of mouse locomotor activity ([3]; 30 mg/kg i.p.) [%]	Inhibition of mouse locomotor activity ([3]; 100 mg/kg i.p.) [%]
O=[N+]([O-])c1ccc(C(CNc2ncnc3c2ncn3[C@@H]2O[C@H](CO)[C@@H](O)[C@H]2O)c2ccc([N+](=O)[O-])cc2)cc1 [Example 20]	> 100	559	229											
OC[C@H]1O[C@@H](n2cnc3c(NCC(c4ccccc4)c4ccccc4)ncnc32)[C@H](O)[C@@H]1O [Example 1, N^6-(2,2-Diphenylethyl)adenosine]	> 100			< 20	16	< 20	20	< 20	20	< 20	35	92	93	94
